Experimental data published in patent US11813236B2, “Substances for treatment of fatty liver-related conditions” (SCANDIBIO THERAPEUTICS AB, priority 2016, dated 2023).

How the values were obtained:
[1] = test system: subjects with high HS; assay: Human study: supplementation of serine; assay type: in vivo
Experimental: 86 subjects with varying degrees of […] were recruited for studying the response of liver to the HS. Also, liver tissue samples from 12 morbidly obese subjects that underwent bariatric surgery were collected. The mRNA expression of the identified target genes was measured in liver of obese and healthy subjects. In order to show the effect of the serine on the liver, another six subjects were recruited and the subjects' characteristics before and after serine supplementation are presented in Table 3. Subjects included in the studies met all the criteria for NAFLD including exclusion of other chronic liver diseases such as viral hepatitis, risky alcohol consumption, metabolic disorders (e.g., hemochromatosis).
Magnetic resonance experiments were performed using three 1.5 T clinical imagers (1× Sonata and 2× Avanto, Siemens, Erlangen, Germany). Liver fat content was determined using proton magnetic resonance spectroscopy and subcutaneous abdominal and visceral fat was measured by magnetic resonance imaging (Adiels et al, 2006; Lundbom et al, 2011).
(§1) The effect of short-term dietary supplementation with serine on HS and fasting levels of Plasma markers of liver functions was assessed in six subjects with high. HS. Each patient received one oral dose of ˜20 g of L-serine (200 mg/kg) per day for 14 days.
as §1, with “To identify the unique contribution of serine supplementation in decreasing HS, the” for “The”, “plasma” for “Plasma”, “high” for “high.”

[2] = test system: humans; conditions: cited from earlier work
[3] = 200 mg/kg/day oral 14 days, six subjects

For N[C@@H](CO)C(=O)O [serine, L-serine], the “Plasma level of ALP after supplementation (change in words)” value [1, 3] was “significantly decreased”, the “Plasma level of ALT after supplementation (change in words)” value [1, 3] was “significantly decreased” and the “Plasma level of AST after supplementation (change in words)” value [1, 3] was “significantly decreased”. The “Plasma ALT, response per subject” value ([1]; 200 mg/kg/day oral 14 days, six subjects, FIG. 5C panel H) was “consistently decreased in all six subjects”, the “Plasma AST, response per subject” value ([1]; 200 mg/kg/day oral 14 days, six subjects, FIG. 5C panel I) was “consistently decreased in all six subjects” and the “Plasma ALP, response per subject” value ([1]; 200 mg/kg/day oral 14 days, six subjects, FIG. 5C panel J) was “decreased in five of the participating subjects”. The “Plasma TGs, response per subject” value ([1]; 200 mg/kg/day oral 14 days, six subjects, FIG. 5C panel K, no change in the remaining one subject) was “decreased in five of the studied subjects”, the “Plasma level of serine after supplementation” value ([1]; 200 mg/kg/day oral 14 days, six subjects, change in words) was “significantly increased” and the “Markers of liver function after supplementation” value ([1]; NAFLD patients, proof-of-concept human study) was “significantly improved”. The “HDL cholesterol” value ([1]; after serine, n = 6, 200 mg/kg/day oral 14 days, mean ± SD, baseline 1.00 ± 0.21, P 0.30) was 1.02 ± 0.18 mmol/L, the HOMA-IR ([1]; after serine, n = 6, 200 mg/kg/day oral 14 days, mean ± SD, baseline 2.15 ± 1.85, P 0.18) was 1.54 ± 1.49 and the “LDL cholesterol” value ([1]; after serine, n = 6, 200 mg/kg/day oral 14 days, mean ± SD, baseline 3.68 ± 0.80, P 0.50) was 3.85 ± 0.94 mmol/L. For the same molecule, the “Total cholesterol” value ([1]; after serine, n = 6, 200 mg/kg/day oral 14 days, mean ± SD, baseline 6.23 ± 1.49, P 0.18) was 5.85 ± 1.15 mmol/L, the “Fasting plasma glucose” value ([1]; after serine, n = 6, 200 mg/kg/day oral 14 days, mean ± SD, baseline 6.57 ± 1.41, P 0.25) was 6.33 ± 1.41 mmol/L and the “Plasma triglycerides (TG)” value ([1]; after serine, n = 6, 200 mg/kg/day oral 14 days, mean ± SD, baseline 6.90 ± 6.65, P 0.13) was 3.63 ± 1.81 mmol/L. The “Bilirubin” value ([1]; after serine, n = 6, 200 mg/kg/day oral 14 days, mean ± SD, baseline 7.33 ± 4.11, P 0.13) was 6.48 ± 3.94 µmol/L, the “Fasting plasma insulin (FPI)” value ([1]; after serine, n = 6, 200 mg/kg/day oral 14 days, mean ± SD, baseline 46.3 ± 33.8, P 0.23) was 34.7 ± 25.2 pmol/L and the “γ-Glutamyl transferase (μGT) (U/L)” value ([1]; after serine, n = 6, 200 mg/kg/day oral 14 days, mean ± SD, baseline 63.8 ± 12.9, P 0.30) was 62.3 ± 16.3 U/L. For the same molecule, the “Liver fat (%)” value ([1]; after serine, n = 6, L-serine 200 mg/kg oral once per day for 14 days, mean ± SD, baseline 26.8 ± 6.0, P<0.05) was 20.4 ± 7.0%, the “HS (hepatic steatosis) after serine supplementation (change in words)” value ([1]; magnetic resonance spectroscopy before and after, 200 mg/kg/day oral 14 days) was “significantly decreased” and the “HS, response per patient” value ([1]; magnetic resonance spectroscopy, 200 mg/kg/day oral 14 days, six patients) was “decreased in all six patients”. For the same molecule, the “Aspartate aminotransferase (AST) (U/L)” value ([1]; plasma, after serine, n = 6, 200 mg/kg/day oral 14 days, mean ± SD, baseline 34.5 ± 8.10, P<0.05) was 27.4 ± 8.4 U/L, the “Alanine aminotransferase (ALT) (U/L)” value ([1]; plasma, after serine, n = 6, 200 mg/kg/day oral 14 days, mean ± SD, baseline 50.8 ± 15.2, P<0.05) was 37.6 ± 5.3 U/L and the “Alkaline phosphatase (ALP) (U/L)” value ([1]; plasma, after serine, n = 6, 200 mg/kg/day oral 14 days, mean ± SD, baseline 76.3 ± 17.2, P<0.05) was 71.3 ± 17.9 U/L. The “Relative decrease in HS” value ([1]; range over the six NAFLD patients, 200 mg/kg/day oral 14 days) was 1.0-23%, the “Tolerability of the supplementation” value ([1]; ~20 g L-serine (200 mg/kg) oral once per day for 14 days, six subjects) was “well tolerated by all the subjects” and the “Doses studied in humans and shown to be safe” value ([2]; serine, around 25-30 g/day) was “up to 400 mg/kg/day”.

In the case of CC(=O)N[C@@H](CS)C(=O)O [NAC, N-acetyl-L-cysteine, reference compound], the “Daily dosage shown to be safe in humans” value ([2]; NAC) is listed as 4-6 grams.
